Source: patent publication US11913020B2, “Method for improving stem cell migration using ethionamide” (Samsung Life Public Welfare Foundation, priority 2017, dated 2024)

Assays:
[1] = tested on: human umbilical cord mesenchymal stem cells; details: ethionamide 10 or 100 μM, 24 hours incubation; compared to control not treated
Description: To this end, the human umbilical cord mesenchymal stem cells (5×10^4 cells) prepared by the method described in Example 1 were dispensed into a Transwell plate (Costar, USA) with an 8.0 μm pore size, and treated with ethionamide at 10 or 100 μM, followed by incubation for 24 hours. Subsequently, the cells were fixed with 4% paraformaldehyde and stained with hematoxylin, the inner side of the Transwell was wiped with a cotton tip, and then the number of cells present on the bottom surface of the Transwell was measured using a microscope.

[2] = tested on: CXCR4; details: treated with ethionamide for 72 hours; compared with stem cells not treated (Control)
Description: To this end, the human mesenchymal stem cells prepared according to the method described in Example 1 were treated with ethionamide for 72 hours, and then lysed with TRIzol (Ambion, USA). Subsequently, following the addition of chloroform (Sigma Aldrich, USA) and centrifugation, only a supernatant was transferred to a new tube, treated with isopropanol (Amresco, USA), and centrifuged to precipitate RNA. Afterward, the precipitated RNA was treated with 75% ethanol (Merck Millipore, USA) for washing, and the completely dried RNA was dissolved in DEPC water (Biosesang, Korea). 5 μg of RNA extracted from the human mesenchymal stem cells treated or not treated with ethionamide by the above-described method was used for cDNA synthesis, and here, for the cDNA synthesis, a cDNA synthesis kit (Invitrogen, USA) was used. Afterward, 10 pM of a primer (Bioneer, Korea) specific for CXCR4, which is a gene related to stem cell migration, and a SYBR green master mix (Applied Biosystems, USA) were added to the synthesized cDNA, and cDNA was amplified using a real time-PCR device (Applied Biosystems, USA), followed by assessment of the amplified result to measure an initial amount of cDNA.

[3] = tested on: human umbilical cord mesenchymal stem cells; details: ethionamide 10 or 100 μM, 24 hours incubation; scratch observed after 14 hours; compared to control not treated
Description: To this end, human umbilical cord mesenchymal stem cells (5×10^4 cells) prepared according to the method described in Example 1 were dispensed into a 6-well plate, and simultaneously treated with ethionamide at 10 or 100 μM, followed by incubation for 24 hours. Subsequently, to inhibit cell proliferation, the cells were treated with mitomycin C at 10 μg/mL to allow a reaction for 2 hours, a scratch was made on the plate using a tip, followed by exchanging the medium with a fresh medium.

CCc1cc(C(N)=S)ccn1 [ethionamide, 2-ethylpyridine-4-carbothioamide]
invasion ability of human mesenchymal stem cells (number of cells on bottom surface of Transwell) [1]: significantly increased | expression level of the CXCR4 gene [2]: at least 4 fold | migration ability of human mesenchymal stem cells (number of migrating stem cells) [3]: significantly increased
